According to patent publication US11136313B2, “Compounds, compositions, and methods for modulating CFTR” (Proteostasis Therapeutics, Inc., priority 2015, dated 2021):

Target: T1, ΔF508-CFTR (Homo sapiens, UniProt P13569, DEL508-508)
T1 construct: Primary lung epithelial cells homozygous for the Cystic Fibrosis-causing ΔF508 mutation were differentiated for a minimum of 4 weeks; endogenous in cells; host or cells: primary lung epithelial cells (hBE) homozygous for ΔF508, differentiated at an air-liquid interface
T1 sequence (P13569 with tags, fused parts or gaps DEL508-508): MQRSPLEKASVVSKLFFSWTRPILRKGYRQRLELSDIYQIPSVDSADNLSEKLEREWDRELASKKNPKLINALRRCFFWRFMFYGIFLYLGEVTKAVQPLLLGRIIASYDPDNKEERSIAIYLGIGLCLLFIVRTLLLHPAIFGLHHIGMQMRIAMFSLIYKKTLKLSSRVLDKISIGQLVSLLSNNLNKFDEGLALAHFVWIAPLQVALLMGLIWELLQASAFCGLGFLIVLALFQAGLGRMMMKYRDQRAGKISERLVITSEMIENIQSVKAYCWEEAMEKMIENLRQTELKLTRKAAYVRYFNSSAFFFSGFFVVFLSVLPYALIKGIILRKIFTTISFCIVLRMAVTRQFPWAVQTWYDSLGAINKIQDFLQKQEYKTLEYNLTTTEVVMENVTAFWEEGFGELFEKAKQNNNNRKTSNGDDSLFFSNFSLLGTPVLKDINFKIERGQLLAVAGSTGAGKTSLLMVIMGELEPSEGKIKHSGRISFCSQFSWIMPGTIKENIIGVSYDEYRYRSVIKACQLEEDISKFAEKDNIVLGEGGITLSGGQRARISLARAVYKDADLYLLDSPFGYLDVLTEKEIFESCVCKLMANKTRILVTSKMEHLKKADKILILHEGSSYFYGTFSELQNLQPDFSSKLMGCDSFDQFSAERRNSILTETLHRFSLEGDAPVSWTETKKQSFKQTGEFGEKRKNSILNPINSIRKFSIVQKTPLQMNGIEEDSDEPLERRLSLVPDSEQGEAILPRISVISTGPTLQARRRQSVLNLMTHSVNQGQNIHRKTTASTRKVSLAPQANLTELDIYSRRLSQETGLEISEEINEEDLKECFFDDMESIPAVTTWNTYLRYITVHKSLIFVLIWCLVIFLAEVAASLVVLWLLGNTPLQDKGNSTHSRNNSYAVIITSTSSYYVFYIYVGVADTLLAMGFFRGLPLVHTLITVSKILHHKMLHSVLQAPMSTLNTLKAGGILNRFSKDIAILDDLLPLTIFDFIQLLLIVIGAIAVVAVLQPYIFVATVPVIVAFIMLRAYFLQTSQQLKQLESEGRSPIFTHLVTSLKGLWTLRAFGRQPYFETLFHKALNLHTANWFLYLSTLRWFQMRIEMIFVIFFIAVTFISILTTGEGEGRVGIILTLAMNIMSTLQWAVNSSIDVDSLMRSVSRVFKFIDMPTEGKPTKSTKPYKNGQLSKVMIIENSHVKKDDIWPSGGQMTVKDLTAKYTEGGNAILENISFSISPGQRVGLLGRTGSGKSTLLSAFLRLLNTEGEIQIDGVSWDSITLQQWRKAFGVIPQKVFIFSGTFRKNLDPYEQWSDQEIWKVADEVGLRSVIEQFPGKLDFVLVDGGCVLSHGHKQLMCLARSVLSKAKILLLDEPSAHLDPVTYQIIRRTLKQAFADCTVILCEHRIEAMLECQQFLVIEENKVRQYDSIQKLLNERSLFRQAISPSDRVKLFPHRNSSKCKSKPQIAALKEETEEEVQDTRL
Test: hBE equivalent current (Ieq) assay: AUC of equivalent chloride current after forskolin/VX-770 in primary lung epithelial cells homozygous for ΔF508
Type: cell-based
Conditions: relative to CFTR amplifier (Compound A)+VX-809 (3 uM), compound at 10 uM and Compound A at 3 uM, 24 h treatment
Outline: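 Readout is the increase over vehicle in equivalent chloride current AUC from forskolin/VX-770 addition to bumetanide, measured by current clamp at 36 °C after benzamil block of ENaC. Cultures were homozygous ΔF508 primary lung epithelium grown ≥4 weeks at air-liquid interface and exposed basolaterally to compound for 24 h.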

Row | SMILES | Activity
1 | Cc1c(-c2cc(C(=O)[O-])c3c(OCC4CCC5(CC4)COC5)ccc(C)c3n2)oc2ccccc12.[Na+] [Compound 367] | ++ (activity>50% of CFTR amplifier+VX-809 (3 uM) with compound at 10 uM and Compound A at 3 uM)
2 | Cc1c(-c2cc(C(=O)[O-])c3c(OC4CC(C)(C)C4)ccc(C)c3n2)oc2ccccc12.[Na+] [Compound 368] | ++ (activity>50% of CFTR amplifier+VX-809 (3 uM) with compound at 10 uM and Compound A at 3 uM)
3 | Cc1c(-c2cc(C(=O)[O-])c3c(OC4CC5(COC5)C4)ccc(C)c3n2)oc2ccccc12.[Na+] [Compound 369] | ++ (activity>50% of CFTR amplifier+VX-809 (3 uM) with compound at 10 uM and Compound A at 3 uM)
4 | Cc1c(-c2cc(C(=O)[O-])c3c(OC4CC5(COC5)C4)ccc(C)c3n2)sc2ccccc12.[Na+] [Compound 370] | ++ (activity>50% of CFTR amplifier+VX-809 (3 uM) with compound at 10 uM and Compound A at 3 uM)
5 | Cc1c(-c2cc(C(=O)[O-])c3c(OC(C)c4ccc(C5COC5)cc4)ccc(C)c3n2)oc2ccccc12.[Na+] (centres unmarked) [Compound 372] | ++ (activity>50% of CFTR amplifier+VX-809 (3 uM) with compound at 10 uM and Compound A at 3 uM)
6 | Cc1c(-c2cc(C(=O)[O-])c3c(OC(C)c4ccc(C5COC5)cc4)ccc(C)c3n2)sc2ccccc12.[Na+] (centres unmarked) [Compound 373] | ++ (activity>50% of CFTR amplifier+VX-809 (3 uM) with compound at 10 uM and Compound A at 3 uM)
7 | Cc1c(-c2cc(C(=O)[O-])c3c(OC[C@H]4C[C@@](C)(O)C4)ccc(C)c3n2)oc2ccccc12.[Na+] [Compound 374] | ++ (activity>50% of CFTR amplifier+VX-809 (3 uM) with compound at 10 uM and Compound A at 3 uM)
8 | Cc1c(-c2cc(C(=O)[O-])c3c(OC[C@H]4C[C@](C)(O)C4)ccc(C)c3n2)oc2ccccc12.[Na+] [Compound 375] | ++ (activity>50% of CFTR amplifier+VX-809 (3 uM) with compound at 10 uM and Compound A at 3 uM)
9 | Cc1c(-c2cc(C(=O)[O-])c3c(OC[C@H]4CC[C@@](C)(O)CC4)ccc(C)c3n2)oc2ccccc12.[Na+] [Compound 376] | ++ (activity>50% of CFTR amplifier+VX-809 (3 uM) with compound at 10 uM and Compound A at 3 uM)
10 | Cc1c(-c2cc(C(=O)[O-])c3c(OC[C@H]4CC[C@](C)(O)CC4)ccc(C)c3n2)oc2ccccc12.[Na+] [Compound 377] | ++ (activity>50% of CFTR amplifier+VX-809 (3 uM) with compound at 10 uM and Compound A at 3 uM)
11 | Cc1c(-c2cc(C(=O)[O-])c3c(OCC4CCC5(CC4)COC5)ccc(C)c3n2)sc2ccccc12.[Na+] [Compound 384] | ++ (activity>50% of CFTR amplifier+VX-809 (3 uM) with compound at 10 uM and Compound A at 3 uM)
12 | CO[C@]1(C)CC[C@H](COc2ccc(C)c3nc(-c4oc5ccccc5c4C)cc(C(=O)[O-])c23)CC1.[Na+] [Compound 387] | ++ (activity>50% of CFTR amplifier+VX-809 (3 uM) with compound at 10 uM and Compound A at 3 uM)
13 | CO[C@]1(C)CC[C@@H](COc2ccc(C)c3nc(-c4oc5ccccc5c4C)cc(C(=O)[O-])c23)CC1.[Na+] [Compound 388] | ++ (activity>50% of CFTR amplifier+VX-809 (3 uM) with compound at 10 uM and Compound A at 3 uM)
14 | Cc1ccc(OC(C)c2ccccc2)c2c(C(=O)[O-])cc(-c3nc4ccccc4n3C)nc12.[Na+] (centres unmarked) [Compound 407] | + (activity<50% of an CFTR amplifier (Compound A)+VX-809 (3 uM) with compound at 10 uM and Compound A at 3 uM)
